{"source": "ChEMBL document CHEMBL3832084", "about": "“DailyMed|setid=22191eca-c98d-4a07-844e-11edb0f04b8d | DIVIGEL - estradiol gel|Physicians Total Care, Inc”", "assay_type_in_all_cases": "ADME, organism-based", "key": {"[1]": {"test": "(§1) Pharmacokinetic parameters for Estradiol on day 14, following multiple daily topical administration of Divigel 0.1 %,at steady state.", "set-up": "dose 0.5 g, dose 1 g, dose 0.25 g, route topical", "settings": "human, in vivo, topical or ocular, dose 0.25 g, dosed compound id 17, dosed compound name ESTRADIOL, regimen Multiple daily dose, sampling time1 Day 14 days, study dosing duration 14 days, tissue Plasma"}, "Homo sapiens": {"system": "Homo sapiens", "test": "as §1", "set-up": "dose 0.5 g, dose 1 g, dose 0.25 g, route topical", "settings": "in vivo, topical_or_ocular, dosed compound id 17, dosed compound name ESTRADIOL, regimen Multiple daily dose, sampling time1 Day 14 days, study dosing duration 14 days, tissue Plasma"}, "[2]": {"test": "Apparent terminal half-life of Estradiol evaluated after topical administration of Divigel.", "settings": "human, in vivo, topical or ocular, dosed compound id 17, dosed compound name ESTRADIOL, tissue Plasma, read-out: t1/2(app) (converted)"}}, "data": [{"smiles": "C[C@]12CC[C@@H]3c4ccc(O)cc4CC[C@H]3[C@@H]1CC[C@@H]2O", "note": "[ESTRADIOL]", "values": [{"measurement": "Tmax", "setting": "[1]", "result": 16, "unit": "h"}, {"measurement": "Cavg", "setting": "Homo sapiens; dose 0.25 g", "result": 9.8, "unit": "pg/mL"}, {"measurement": "Cavg", "setting": "Homo sapiens; dose 0.5 g", "result": 21, "unit": "pg/mL"}, {"measurement": "Tmax", "setting": "Homo sapiens; dose 0.5 g", "result": 10, "unit": "h"}, {"measurement": "Cavg", "setting": "Homo sapiens; dose 1 g", "result": 30.5, "unit": "pg/mL"}, {"measurement": "Tmax", "setting": "Homo sapiens; dose 1 g", "result": 8, "unit": "h"}, {"measurement": "half-life", "setting": "[2]", "result": 600, "unit": "min"}]}]}
